What was measured:
young crickets = assay: Olfactory associative learning test in young crickets (single-time training, memory a day after); assay type: in vivo, Gryllus bimaculatus
young mice [1] = assay: Object recognition test for young mice (melatonin and melatonin metabolites); assay type: in vivo, ICR mice; conditions: i.p. 60 minutes after one one-minute acquisition trial, test trial 24 hours later
Method: (§1) Two-month-old male ICR mice (young mice) were used. The rearing room was kept at 22° C. at cycles of 12 hours of light period/12 hours of dark period, and feed and drinking water were given freely. All of the experiments were conducted during the latter 6 hours of the light period.
Melatonin (MEL), N(1)-acetyl-N(2)-formyl-5-methoxykynuramine (AFMK), and N(1)-acetyl-5-methoxykynuramine (AMK) were used as drugs. Melatonin was purchased from SIGMA Aldrich, AFMK was purchased from Cayman Chemical, and AMK was purchased from Toronto Research Chemicals. AFMK and AMK were diluted with physiological saline and intraperitoneally administered at a dosage of 0.01 mg/kg bw, 0.1 mg/kg bw or 1.0 mg/kg bw. MEL was diluted with physiological saline containing 1 vol % ethanol, and intraperitoneally administered at a dosage of 1.0 mg/kg bw or 5.0 mg/kg bw. As controls, physiological saline or physiological saline containing 1 vol % ethanol was intraperitoneally administered.
Test was conducted in the same manner as “5.3 Object recognition test” in Example 5.
(§2) Processing was conducted in the same manner as “5.4 Statistical processing” in Example 5.

young mice [2] = assay: Object recognition test for young mice, AMK application to the scalp; assay type: in vivo, ICR mice; conditions: 1 μl of 0.4 mg/μl in dimethyl sulfoxide applied to scalp 30 minutes before one 3-minute acquisition trial
Method: as §1
N(1)-acetyl-5-methoxykynuramine (AMK) was used as a drug. AMK was diluted with dimethyl sulfoxide to result a concentration of 0.4 mg/μl. One μl of the diluent was applied to each individual.
In order to examine the effect of AMK application to the skin, the scalps of the mice were depilated the day before the acquisition trial, AMK or dimethyl sulfoxide as a solvent was applied to 1 cm^2 of the scalp under inhalation anesthesia with isoflurane (Pfizer) 30 minutes before the acquisition trial, left for 5 minute to dry, and then the applied surface was protected with patchProtect (SmartPractice).
Test was conducted in the same manner as “5.3 Object recognition test” in Example 5 except that searching time was 3 minutes in the acquisition trial.
as §2

[3] = Measurement of brain AMK level after intraperitoneal administration; assay type: in vivo, ICR mice; conditions: 1 mg/kg bw intraperitoneal
Method: 8-week-old male ICR mice were purchased. Each of the experiment individuals was raised in an individual cage, and adapted to the raising environment for at least a week before use. The rearing room was kept at 22° C. at cycles of 12 hours of light period/12 hours of dark period, and feed and drinking water were given freely. All of the experiments were conducted during the latter 6 hours of the light period.
N(1)-acetyl-5-methoxykynuramine (AMK) was used as a drug. AMK was diluted with physiological saline. In the administration experiment, a dosage of 0.001 mg-1 mg/3.65 ml/kg bw was intraperitoneally administered.
1 mg/kg bw of AMK was intraperitoneally administered, and 5, 15, 30, 60, 120 and 240 minutes later, the hippocampus and a region including the perirhinal cortex of the temporal lobe that was assumed to be involved in object recognition memory were collected to measure the AMK levels with a high-performance liquid chromatograph mass spectrometer. As a control group, AMK levels in untreated individuals were also measured

aged crickets = assay: Olfactory associative learning test in aged crickets (age-related memory disorder, training four times); assay type: in vivo, Gryllus bimaculatus; conditions: 1 μM, 3 μl
Method: Male crickets about one week old (young) or three week old (aged) following molting into adult forms were used. Each of the crickets was placed into a 100 ml beaker three days before the experiment, and deprived of water for 2-3 days to enhance the desire of taking water. As the feed, about 10 pieces of insect feed were placed into the beaker. A 1-ml syringe was used for smell and reward associative conditioning upon learning/training. The syringe contained water as the reward while a piece of paper (3 mm×3 mm) perfumed with peppermint essence was pierced into the needle to about 1 cm from the tip thereof. In this learning/training, the filter paper on the needle was brought near the antennae of the cricket to allow it to smell for 3 seconds and then a drop of water was put out from the tip of the needle and applied to the mouth of the cricket. When the associative conditioning was conducted for four times, the conditionings were conducted at intervals of 5 minutes. Smell preference was examined by placing each cricket into a test arena. The arena consisted of a “standby chamber” and a “test chamber”. […] The smell source was a plastic pot containing filter paper perfumed with essence of a smell (peppermint or vanilla) and covered with a gauze lid. In the preference test, each cricket was placed into the test chamber and allowed to walk freely for 4 minutes to search for the two smell sources. Two minutes after the start of the test, a rotary board having the smell sources was rotated to reverse the positions of the vanilla and the peppermint smells. During the test, the time the cricket spent placing its mouth to the gauze of the smell source was measured as a visiting time to the smell source, and the ratio of the visiting times of the two types of smells (PI value: preference index) was calculated according to the following formula to assess the relative preference to the mint smell. PI value=Tp/(Tp+Tv)×100 • Tp: Searching time for smell associated with the reward (peppermint) • Tv: Searching time for smell not associated with the reward (vanilla) If the preferences for the two smells are equivalent, PI will be 50. Since crickets inherently prefer vanilla smell over peppermint smell, an average PI value prior to the learning/training is usually 25-35, The preference test was conducted before and after the learning/training to examine whether preference for the smell changes due to the learning/training. […] Melatonin, 6-HM, kynurenine, kynuramine and 8br-cGMP were purchased from SIGMA Aldrich, AFMK was purchased from Cayman Chemical, AMK was purchased from Toronto Research Chemicals and CHX was purchased from Wako Pure Chemical Industries. The drugs other than 8br-cGMP and CHX were first dissolved in ethanol and then diluted with physiological saline for crickets to the respective concentrations. In the administration experiment, 3 μl was administered using a 10-μl syringe to the brain via an aperture opened through a simple eye of the head. PI values were tested before the training and a day after the training in the same group by a Wilcoxon's-test.

crossing of the blood-brain barrier [3]: cross the blood-brain barrier | time to reach and act in the brain following intraperitoneal administration [3]: about 5 minutes | AMK concentration in hippocampus and perirhinal cortex as compared to the control group ([3]; within 5 minutes, thereafter decreased with time): significantly increased
Compound: COc1ccc(N)c(C(=O)CCNC(C)=O)c1 [Compound 1, N-[3-(2-amino-5-methoxyphenyl)-3-oxopropyl]-acetamide]
amount in 1 g of the food per kg of body weight (young crickets; based on the results from ingesting 1 μM for 10 μl): ≥ 2.32 µg | long-term memory formation a day after the training by oral administration (young crickets; drinking 10 μl of aqueous solution (5 μM) 5 minutes after single-time training): long-term memory was formed | concentration at which the effect of inducing long-term memories was found (young mice [1]): 0.1 mg/kg bw | long-term memory formation (DI value, test trial 24 hours later) (young mice [2]): a long-term memory was formed | improvement in an age-related memory disorder (aged crickets; 20 minutes after training for four times): improvement in an age-related memory disorder was observed | long-term memory formation a day after the training (improvement of age-related memory disorder) (aged crickets; 20 minutes before training for four times): a long-term memory was formed

From US10266482B2, “Long-term memory inducing agent” (NATIONAL UNIVERSITY CORPORATION TOKYO MEDICAL AND DENTAL …, priority 2017, dated 2019)
